Test results taken from patent US9261498B2, “Biomarker for sensitivity to mTOR inhibitor therapy in kidney cancer” (The Regents of the University of California, priority 2005, dated 2016).

System: mTOR
Test: Immunoblot of S6 phosphorylation in xenograft tumors
Assay type: in vivo, SCID mice
Conditions: parental and knockdown xenografts, 0.1 mg/kg, day 5 of treatment
Experimental: FIGS. 1A-1E. Effects of VHL knockdown on sensitivity to CCI-779. (a) Immunoblotting of lysates derived from shRNA and control (empty vector, V) in SN12C, using antibodies against VHL (both isoforms detected), HIF-1α, HIF-2α, GLUT-1, CA-IX and β-Actin (as a loading control). (b) SN12C-CSCG and SN12C-VHLshRNA cells (1×10^5) were cultured in 10% serum rich media, in the presence of vehicle, 1 or 10 nM of CCI-779 for 5 days. Cell growth was measured by cell counts (n=3). […] (c) SN12C-CSCG (C1) and SN12C-CSCG shVHL RNA (C2) cells were injected into SCID mice at a dose of 1×10^6 cells per mouse (n=30). […] Phosphorylated-S6 protein in SN12C-CSCG and SN12C-VHL shRNA xenograft tumors treated with vehicle or 0.1 mg/kg of CCI-779 was measured by immunoblot C3 and C4). […]
Cells and xenograft tumors were lysed in ECB lysis buffer (see, e.g. Kondo et al., Cancer Cell 1, 237-46 (2002)) or high-detergent buffer (2% SDS), (see, e.g. Chen et al., Nat Med 10, 33-9 (2004)), respectively, supplemented with complete protease and phosphatase inhibitor cocktails (Calbiochem). […] Bound antibody was detected using enhanced chemiluminescence (ECL, Amersham). For VEGF ELISA quantification, cells were plated in 6 well plates (1×10^5 per well). […] Thirty-six hours later, VEGF ELISA (R&D Systems) was performed according to the manufacturer's instructions, using a Fisher Plate reader. […]

CO[C@H]1C[C@@H]2CC[C@@H](C)[C@@](O)(O2)C(=O)C(=O)N2CCCC[C@H]2C(=O)O[C@H]([C@H](C)C[C@@H]2CC[C@@H](OC(=O)C(C)(CO)CO)[C@H](OC)C2)CC(=O)[C@H](C)/C=C(\C)[C@@H](O)[C@@H](OC)C(=O)[C@H](C)C[C@H](C)/C=C/C=C/C=C/1C [CCI-779]
S6 phosphorylation in xenograft tumors: decrease in S6 phosphorylation
